Inhibition data for five compounds are collected here from patent publication US7022699B2, “Cyclohexenyl phenyl diazepines vasopressin and oxytocin receptor modulators” (Wyeth, priority 2001, dated 2006).

For this test, the target named is T1, human vasopressin V2 receptor subtype (Homo sapiens, UniProt P30518).
T1 construct: host or cells: CHO cells, stably transfected (pZeoSV vector); membranes
T1 sequence (P30518 whole entry): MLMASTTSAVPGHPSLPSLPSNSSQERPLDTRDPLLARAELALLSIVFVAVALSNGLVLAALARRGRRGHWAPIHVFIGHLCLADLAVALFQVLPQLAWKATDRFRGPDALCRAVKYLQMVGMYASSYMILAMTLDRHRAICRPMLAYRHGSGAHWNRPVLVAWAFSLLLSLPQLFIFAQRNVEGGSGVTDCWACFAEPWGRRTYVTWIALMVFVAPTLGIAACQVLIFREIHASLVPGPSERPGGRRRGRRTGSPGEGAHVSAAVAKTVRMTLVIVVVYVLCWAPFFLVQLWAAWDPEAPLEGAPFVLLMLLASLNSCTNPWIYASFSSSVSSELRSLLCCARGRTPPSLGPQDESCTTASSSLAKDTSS
Put plainly: Vasopressin binding in CHO cell membranes expressing human vasopressin V2 subtype receptors ([3H]arginine vasopressin). Particulars: 100 nM, values without parentheses. From the text:
Vasopressin Binding in Chinese Hamster Ovary Cell Membranes Expressing Human Vasopressin V2 Subtype Receptors
Chinese Hamster Ovary (CHO) cells stably transfected with the human V2 subtype receptors were obtained from M. Thibonnier, Case Western Reserve University School of Medicine, Cleveland, Ohio.
A. Passaging and Amplification of Cells:
CHO cells transfected with the human vasopressin V2 subtype receptors obtained from M. Thibonnier (pZeoSV vector) are allowed to grow to confluency (approx. >90%) in T-150 flasks under sterile conditions, in a cell culture medium of F-12 Nutrient Mixture (HAM) with L-glutamine (Gibco Cat. #11765-054) containing 15 mM HEPES (Gibco Cat. #15630-080), 1% antibiotic/antimycotic (add 5 mL 100×, Gibco Cat. #15240-062 per 500 mL F-12), 250 μg/mL Zeocin (add 1.25 mL of 100 mg/mL Invitrogen R-250-01 per 500 mL F-12) and 10% Fetal Bovine Serum (Qualified, heat inactivated, Gibco Cat. #16140-063). The medium is removed by aspiration and the cells washed with 10 mL of Hank's Balanced Salt solution (Gibco Cat. #14175-095). The salt solution is removed by aspiration and the cells trypsinized with 5 mL of trypsin-EDTA (0.05% trypsin, 0.53 mM EDTA-4Na, Gibco Cat. #25300-070) for 1 min. The trypsin is removed by aspiration and the cells dislodged by tapping. Cell Culture medium (e.g. 30 mL for 1:30 split) is immediately added and mixed well to inactivate trypsin. 1 mL of detached cells is added to new culture flasks containing fresh Cell Culture medium (e.g. into 25 mL per T-150 flask), and mixed gently. The cells are incubated at 37° C. in 5% CO2. The medium is changed at 3 to 4 day interval (or as appropriate). The cells grow to confluency (approx. >75%–95%) within 7–8 days. All steps are done under sterile conditions. B. Membrane Preparation: The cells are washed twice gently with Hank's Balanced Salt solution (e.g. use 10 mL per T-150 flask). The excess solution is removed and the cells bathed for 15–30 min. in an enzyme-free Cell Dissociation Buffer (e.g. use 8 mL Hank's Based, Gibco Cat. # 13150-016 per T-150 flask) until cells are loosened. The contents are transferred to centrifuge tubes (50 mL size) kept in ice bath. All subsequent steps are done at 4° C. The tubes are centrifuged at 300×g for 15 min (1380 rpm on SORVAL, Model RT6000D, using rotor for 50 mL tubes). The supernatant is discarded and the cells suspended in homogeneizing buffer (10 mM Tris-HCl containing 0.25 M sucrose and 1 mM EDTA, pH 7.4) ensuring that the volume of the buffer is about ten times the volume of the cell pellet. The cells are pooled into a centrifuge tube (50 mL) and homogenized with Polytron at setting 6 for 10 sec. The homogenate is transferred into a Potter-Elvjehm homogeneizer and homogenized with 3 strokes. The homogenate is centrifuged at 1500×g for 60 min at 4° C. (3100 rpm using SORVAL, model RT6000D, using rotor for 50 mL tubes). The pellet is discarded. The supernatant is centrifuged at 100,000×g for 60 min. at 4° C. (Beckman L8-80M ultracentrifuge; spin at 37,500 rpm with rotor type 70 Ti for 50 mL tubes; 38,000 rpm with type 80Ti for 15 mL tubes; or 35,800 rpm with rotor type 45Ti). The supernantant is discarded and the pellet suspended in 3 to 4 mL of Tris buffer (50 mM TRIS-HCl, pH 7.4). The protein content is estimated by the Bradford or Lowry method. The volume of the membrane suspension is adjusted with the membrane buffer (50 mM Tris-HCl containing 0.1% BSA and 0.1 mM PMSF) to give 3.0 mg/mL (or as appropriate) of protein. The membranes are aliquoted and stored at −70° C. C. Radioligand Binding Assay:
In wells of a 96-well format microtiter plate, is added 90, 110 or 130 μL (to make up a final volume of 200 μL) of assay buffer containing 50 mM of Tris-HCl (pH 7.4), […], 1 mg % aprotinin, 1 mg % leupeptin, 2 mg % 1,10-phenanthroline, 10 mg % trypsin inhibitor, and 0.1 mM PMSF. The inhibitors are added on the day of the experiment. […]
In general, inhibition refers to the relative decrease from the control value, in per cent. Turning to `COc1cccc(C2=C(c3ccc(C(=O)N4Cc5cccn5Cc5ccccc54)cc3C)CCCC2)c1` [Example 38, (10,11-Dihydro-5H-pyrrolo[2,1-c][1,4]benzodiazepin-10-yl)-{4-[2-(3-methoxy-phenyl)-cyclohex-1-en-1-yl]-3-methyl-phenyl}-methanone], the inhibition at 0.1 µM is -9%. As for `Cc1cc(C(=O)N2Cc3cccn3Cc3ccccc32)ccc1C1=CC(=O)CCC1` [Example 39, 3-[4-(10,11-Dihydro-5H-pyrrolo[2,1-c][1,4]benzodiazepine-10-carbonyl)-2-methyl-phenyl]-cyclohex-2-en-1-one], the figure is 38%; as for `Cc1cc(C(=O)N2Cc3cccn3Cc3ccccc32)ccc1C1=CC(O)CCC1` (centres unmarked) [Example 40, (10,11-Dihydro-5H-pyrrolo[2,1-c][1,4]benzodiazepin-10-yl)-[4-(3-hydroxy-cyclohex-1-en-1-yl)-3-methyl-phenyl]-methanone], 48%; as for `CO[C@@H]1CCCC(c2ccc(C(=O)N3Cc4cccn4Cc4ccccc43)cc2C)=C1C` [Example 44, 10-{4-[(3R)-3-Methoxy-2-methylcyclohex-1-en-1-yl]-3-methylbenzoyl}-10,11-dihydro-5H-pyrrolo[2,1-c][1,4]benzodiazepine], 86%. Take `CC1=C(c2ccc(C(=O)N3Cc4cccn4Cc4ccccc43)cc2C)CCCC1N` (centres unmarked) [Example 45, [4-(3-Amino-2-methyl-cyclohex-1-en-1-yl)-3-methyl-phenyl]-(10,11-dihydro-5H-pyrrolo[2,1-c][1,4]benzodiazepin-10-yl)-methanone]: the inhibition at 0.1 µM stood at 27%.
